Source: patent US11274165B2, “Pentosan polysulfate, pharmaceutical composition, and anticoagulant” (OJI HOLDINGS CORPORATION, priority 2017, dated 2022)

What was measured:
factor IIa = molecular target: T1, factor IIa (Homo sapiens, UniProt P00734); assay: Anti-IIa activity measured using Biophen heparin anti-IIa (Hyphen Biomed); format: biochemical
T1 construct: purchased Hyphen Biomed
Experimental: Moreover, the factor IIa inhibitory activity (anti-IIa activity) can be measured using Biophen heparin anti-IIa (manufactured by Hyphen Biomed).
Using Biophen heparin anti-IIa (manufactured by Hyphen Biomed), the anti-IIa activity of pentosan polysulfate sodium was measured.
(§1) The content of acetyl groups, the content of sulfur, the anti-Xa activity, and the anti-IIa activity were measured in the same manners as those of Examples 1 to 5.

factor Xa = assay: Anti-Xa activity measured using Test Team Heparin S (Sekisui Medical); format: biochemical; details: for Anti-Xa/anti-IIa activity ratio: ratio of anti-Xa activity to anti-IIa activity
Experimental: Herein, the factor Xa inhibitory activity (anti-Xa activity) can be measured using Test Team (registered trademark) Heparin S (manufactured by Sekisui Medical Co., Ltd.).
Using Test Team (registered trademark) Heparin S (manufactured by Sekisui Medical Co., Ltd.), the anti-Xa activity of pentosan polysulfate sodium was measured.
as §1

[1] = Table 3, influence of molecular weight
[2] = Table 1, influence of content of acetyl groups

Substance	Anti-IIa activity (IU/mg) (factor IIa; [1])	Anti-Xa activity (IU/mg) (factor Xa; [1])	Anti-Xa/anti-IIa activity ratio (factor Xa; Table 3)	Anti-IIa activity (IU/mg) (factor IIa; [2])	Anti-Xa activity (IU/mg) (factor Xa; [2])	Anti-Xa/anti-IIa activity ratio (factor Xa; Table 1)
pentosan polysulfate sodium [Comp. Ex. 4]	6.80	0.73	0.11			
pentosan polysulfate sodium [Ex. 3]				0.0676	0.2439	3.607
pentosan polysulfate sodium [Ex. 5]				0.0976	0.2297	2.352
pentosan polysulfate sodium [Ex. 6]	0.15	0.67	4.29			
pentosan polysulfate sodium [Comp. Ex. 1, reference compound]				0.0221	0.0840	3.801
pentosan polysulfate sodium [Ex. 8]	0.43	0.22	0.51			
pentosan polysulfate sodium [Ex. 2]				0.1845	0.2588	1.403
pentosan polysulfate sodium [Ex. 1]				0.1405	0.2047	1.457
pentosan polysulfate sodium [Ex. 7]	0.12	0.15	1.25			
pentosan polysulfate sodium [Ex. 4]				0.0934	0.2419	2.591
pentosan polysulfate sodium [Comp. Ex. 3, reference compound]	62.12	16.61	0.15			
pentosan polysulfate sodium [Comp. Ex. 2]	15.52	1.69	0.11			
